We go through six molecules from patent US10287552B2, “Generation of hepatocytes from pluripotent stem cells” (ALBERT EINSTEIN COLLEGE OF MEDICINE, INC., priority 2012, dated 2019).

First the molecules themselves.
B1: G-CSF: G-CSF (Amgen Inc.), factor identified in eFHLC-CM (protein, UniProt P09919 31-207, looked up)
Granulocyte …: TPLGPASSLPQSFLLKCLEQVRKIQGDGAALQEKLVSECATYKLCHPEELVLLGHSLGIPWAPLSSCPSQALQLAGCLSQLHSGLFLYQGLLQALEGISPELGPTLDTLQLDVADFATTIWQQMEELGMAPALQPTQGAMPAFASAFQRRAGGVLVASHLQSFLEVSYRVLRHLAQP

The first assay deals with ATMP-tdT Huh-7 cells. The assay can be described thus: cis-P toxicity and ATM promoter activity assay. The assay is classed as cell-based, human. The conditions noted are these: 15 μM cis-P alone.
Consider `N.N.[Cl][Pt][Cl]` [Cis-P, cis-platinum, reference compound], for which the ATM promoter activity result is recorded as “increased”.

The assay is the same for the next values; noted with them: cis-P plus factor, versus cis-P-treated cells.
With “IGF1: growth factor identified in eFHLC-CM”, the ATM promoter activity result was “lowered ATM promoter activity” and the cell viability entry is “improved cell viability”.
Regarding VEGF, the ATM promoter activity entry was “ineffective” and the cell viability entry is on record as “ineffective”.
On to “FGF1: growth factor identified in eFHLC-CM”, for which the ATM promoter activity entry is listed as “lowered ATM promoter activity” and the cell viability entry was “improved cell viability”.
As to “FGF2: growth factor identified in eFHLC-CM”, the ATM promoter activity result is listed as “lowered ATM promoter activity” and the cell viability result is reported as “improved cell viability”.
B1: the ATM promoter activity result is “lowered ATM promoter activity” and the cell viability result is listed as “improved cell viability”.
